Assay results as given in patent US20200383985A1, “Inhibitors of Protease Activated Receptor-2” (Endosome Therapeutics, Inc., priority 2017, published 2020).

Tests used:
mouse DRG neurons = test: Patch clamp rheobase of DRG neurons: IBS-D biopsy supernatant-induced hyperexcitability; format: cell-based; details: I-343 10 μM, Dy4 30 μM, PD98059 50 μM
Protocol: An investigation as whether proteases from mucosal biopsies of IBS patients cause a persistent hyperexcitability of nociceptors was conducted by a mechanism that entails endosomal signaling of PAR2. Biopsies of colonic mucosa from patients with diarrhea-predominant IBS (IBS-D) or healthy control (HC) subjects were placed in culture medium (24 h, 37° C.). Mouse DRG neurons were then exposed to biopsy supernatants (30 min, 37° C.) and washed. Rheobase was measured 30 min after washing to assess persistent hyperexcitability. Supernatants of biopsies from IBS-D patients caused a persistent decrease in rheobase, consistent with hyperexcitability, when compared to supernatants from HC subjects (rheobase at 30 min: HC, 78.33±4.41 pA, 12 neurons, supernatant from 4 HC; IBS-D, 54.55±4.74 pA, 11 neurons, supernatant from 4 IBS-D; P<0.05; ANOVA, Tukey's multiple comparisons test) (FIG. 6A, B). I-343 (10 μM), Dy4 (dynamin inhibitor, 30 μM) and PD98059 (MEK1 inhibitor, 50 μM) abolished IBS-D-induced hyperexcitability of nociceptors (FIG. 6A-D).
The Queen's University Human Ethics Committee approved human studies. All subjects gave informed consent. Endoscopic biopsies were obtained from the descending colon of 13 adult IBS-D patients (12 female) diagnosed using ROME III criteria for diarrhea predominant IBS and of 12 health controls. All IBS patients had symptoms greater than 1 year and most were greater than 5 years. Celiac disease was excluded by blood test and patients over 40 years with daily diarrhea were biopsied at the time of colonoscopy to exclude microscopic colitis. […] Biopsies (8 samples per patient) were incubated in 250 μl of RPMI medium containing 10% fetal calf serum, penicillin/streptomycin and gentamicin/amphotericin B (95% O2/5% […], 24 h, 37° C.). Supernatants were stored at −80° C. Supernatants from 4-6 patients were pooled and studied in individual experiments.
DRG innervating the colon (T9-T13) were collected from C57BL/6 mice. Ganglia were digested by incubation in collagenase IV (1 mg/ml, Worthington) and dispase (4 mg/ml, Roche) (10 min, 37° C.). DRG were triturated with a fire-polished Pasteur pipette, and further digested (5 min, 37° C.). Neurons were washed, plated onto laminin- (0.017 mg/ml) and poly-D-lysine- (2 mg/ml) coated glass coverslips, and were maintained in F12 medium containing 10% fetal calf serum, penicillin and streptomycin (95% air, 5% CO2, 16 h, 37° C.) until retrieval for electrophysiological studies.
Small-diameter (<30 pF capacitance) neurons were studied because they display characteristics of nociceptors (Valdez-Morales E. E. et al., Am J Gastroenterol 2013, 108(10): 1634-1643). Changes in excitability were quantified by measuring rheobase. Whole-cell perforated patch-clamp recordings were made using Amphotericin B (240 μg/ml, Sigma Aldrich) in current clamp mode at room temperature. The recording chamber was perfused with external solution at 2 ml/min. Recordings were made using Multiclamp 700B or Axopatch 200B amplifiers, digitized by Digidata 1440A or 1322A, and processed using pClamp 10.1 software (Molecular Devices). Solutions had the composition (mM): pipette—K-gluconate 110, KC130, HEPES 10, MgCl2 1, CaCl2 2; pH 7.25 with 1 M KOH; external—NaCl 140, KCl 5 HEPES 10, glucose 10, MgCl2 1, CaCl2 2; pH to 7.3-7.4 with 3 M NaOH. […] Neurons were also preincubated with trypsin (50 nM, 10 min), NE (390 nM, 30 min), CS (500 nM, 60 min), or vehicle (37° C.), and washed. Rheobase was measured at T 0 or T 30 min after washing. To investigate mechanisms of protease-evoked effects, neurons were incubated with I-343 (100 nM, 300 nM, 10 μM, 30 min preincubation), SCH79797 (1 μM, 10 min), Dy4 (30 μM, 30 min), PS2 (15 μM, 30 min), PD98059 (50 μM, 30 min), GF109203X (10 μM, 30 min), or vehicle (preincubation and inclusion throughout). In experiments using the tripartite antagonist, neurons were preincubated with Compound 10 (30 μM, 60 min, 37° C.) or vehicle and washed. […]

colonic afferent neurons = test: Colonic afferent recordings, CVH mice (28 d post-TNBS); parameters: species or system mouse
Protocol: Transient colitis in mice induces hypersensitivity of colonic afferent neurons that persists after inflammation is resolved (Azpiroz F., et al., Neurogastroenterol Motil. 2007, 19(1 Suppl): 62-88). This chronic visceral hypersensitivity (CVH) may mimic post-infectious/inflammatory IBS. To determine whether proteases can further amplify CVH, mice were treated with trinitrobenzene sulphonic acid (TNBS, enema) to induce colitis. At 28 d post-TNBS, when inflammation is undetectable, mechanical stimulation of the colon induced a larger firing rate in CVH mice than in HC mice, consistent with chronic hyperexcitability (FIG. 21A-D). […] Thus, proteases can still amplify the excitability of colonic nociceptors even when they are already sensitized as a result of prior inflammation. The colon and rectum (5-6 cm) was removed from C57BL/6 mice. Afferent recordings were made from splanchnic nerves as described (Hughes, P. A. et al., Gut 2009, 58(10): 1333-134; Brierley, S. M. et al., Gastroenterology 2004, 127(1): 166-178). Briefly, the intestine was opened and pinned flat, mucosal side up, in an organ bath. […] Action potentials were analyzed using the Spike 2 […] function and discriminated as single units on the basis of distinguishable waveform, amplitude and duration. […]

Row | Molecule | IBS-D-induced hyperexcitability of nociceptors (mouse DRG neurons) | rheobase of neurons exposed to HC supernatant (mouse DRG neurons) | further amplification of responses compared to basal, CVH mice (colonic afferent neurons) [%]
1 | Cc1nc(C(=O)N2CCN(C(=O)c3cn4nc(-c5ccc(F)cc5)cc(C(C)(C)C)c4n3)C(C)(C)C2)n[nH]1 [Compound I-343, (8-(tert-butyl)-6-(4-fluorophenyl)imidazo[1,2-b]pyridazin-2-yl)(2,2-dimethyl-4-(5-methyl-1H-1,2,4-triazole-3-carbonyl)piperazin-1-yl)methanone] | abolished | no effect | 
2 | O=C(N/N=C/c1cc(O)c(O)cc1O)c1cc2ccccc2cc1O [Dy4] | abolished | non-significant decrease | 
3 | NE: protease (elastase) activating PAR2 by biased mechanisms |  |  | 30.6±9.0
4 | trypsin |  |  | 16.4±7.9
